Values quoted from earlier work in article PMC8670146 (Journal of Pharmaceutical and Biomedical Analysis, 2021).

Target: SARS-CoV-2 3CLpro (Severe acute respiratory syndrome coronavirus 2, UniProt P0DTD1)
Details: previous study

Row | SMILES | in vitro 3CLpro inhibition activity
1 | O=C(O)[C@H]1O[C@@H](Oc2cc3oc(-c4ccccc4)cc(=O)c3c(O)c2O)[C@H](O)[C@@H](O)[C@@H]1O [compound 1, Baicalin] | showed in vitro 3CLpro inhibition activity
2 | O=c1cc(-c2ccccc2)oc2cc(O)c(O)c(O)c12 [compound 2, Baicalein] | showed in vitro 3CLpro inhibition activity
